Test system: neuromuscular junction
Assay: Rabbit paw twitch analysis (neuromuscular blocking activity)
Assay type: in vivo, Male New Zealand white rabbits
Text: In a large series of similar relaxants, the rabbit dose is typically 125% of that in mice. The mechanism of action was also confirmed in this test by observing train-of-four and tetanus fade, post-tetanic potentiation of single twitches and administration of the anticholinesterase drug neostigmine which reverses the relaxation. Reversibility, rapid onset and short duration are important factors to the anesthesiologist.
The following is a brief description of the methodologies used in rabbits to describe neuromuscular blocking activity of the subject compounds. A more detailed description of these methods is presented in "Microcomputer Use in Measuring Onset, Duration, and Recovery from Non-Depolarizing Skeletal Muscle Relaxants in Rabbits", P.D. Thut et al., Drug development Research 5:182, 1985.
Male New Zealand white rabbits weighing between 2.5 and 3.4 kg were anesthetized with pentobarbital (30 mg/kg) and placed on their backs upon a 40°C water filled temperature regulation pad. Following tracheostomy, the lungs were mechanically ventilated at 28 breaths per minute with room air, using an open system delivering 200 ml/stroke. This ventilation maintained pCO₂ at 38 […] and pO₂ at 85 mmHg. Direct arterial blood pressure was measured from the right common carotid artery. The test compounds were administered through a cannula placed in the marginal ear vein. Each foreleg was taped to a cushioned plate held in a femur clamp attached to the spinal board rack. The left centeral digit of each paw was connected to a force displacement transducer for measurement of muscle tension. Nerve stimulation was provided by pairs of pin electrodes placed on both sides of the ulnar nerve at the elbow of both forearms. The right ulnar nerve was stimulated at 1 Hz, 1 pps for .5 msec duration. The left ulnar nerve was similarly stimulated, every 15 seconds, with addition of interspersed trains-of-four and tetanizing stimuli. The parameters reported in Table II are: potency (ED90), which is the dose required to depress twitch tension to 10% of its control value; onset (T85%), which is the time from injection until 85% of the maximal drug effect is achieved; duration, which is the time from injection until the train-of-four has recovered to 75%; blood pressure (BP), which is the percentage change of pre-drug blood pressure; and heart rate (HR), which is the percentage change from pre-drug heart rate.

SMILES: CC(=O)O[C@H]1C[C@@H]2CC[C@@H]3[C@H](CC[C@@]4(C)[C@H]3C[C@H]([N+]3(C)CCCCC3)[C@@H]4OC(C)=O)[C@@]2(C)C[C@@H]1N1CCCCC1 [vecuronium]
- BP (rabbit, in vivo): 1.10 % change
- Duration (rabbit, in vivo): 16.80 min
- ED9O (rabbit, in vivo): 0.02 mg/kg
- HR (rabbit, in vivo): - 9.90 % change
- T85% (rabbit, in vivo): 97.30 s

SMILES: COc1ccc(CC2c3cc(OC)c(OC)cc3CC[N+]2(C)CCC(=O)OCCCCCOC(=O)CC[N+]2(C)CCc3cc(OC)c(OC)cc3C2Cc2ccc(OC)c(OC)c2)cc1OC (stereo not shown) [atracurium]
- ED90 (Oryctolagus cuniculus, iv, potency: dose required to depress twitch tension to 10% of its control value, pentobarbital-anesthetized rabbits, marginal ear vein): 0.05 mg/kg
- T85% (onset: time from injection until 85% of the maximal drug effect is achieved, equi-efficacious dose): 126.90 s
- Duration (time from injection until the train-of-four has recovered to 75%, equi-efficacious dose): 14.30 min

SMILES: CC(=O)O[C@H]1C[C@@H]2CC[C@@H]3[C@H](CC[C@@]4(C)[C@H]3C[C@H]([N+]3(C)CCCCC3)[C@@H]4OC(C)=O)[C@@]2(C)C[C@@H]1[N+]1(C)CCCCC1 [pancuronium]
- BP (rabbit, in vivo): 2.70 % change
- Duration (rabbit, in vivo): 35.50 min
- ED9O (rabbit, in vivo): 0.02 mg/kg
- HR (rabbit, in vivo): 0.00 % change
- T85% (rabbit, in vivo): 147.50 s
